Measurements: patent US20220378711A1, “PH-Responsive Nanoparticles for Treating Cancer” (United States Government as represented by the Department …, priority 2021, published 2022)
Where two headings read alike, the source gives them in different places.

Key:
MIA PaCa-2 cells [1] = assay: MTT cell viability and CompuSyn synergy assay; type: cell-based; settings: MIA PaCa-2, 72 h MTT
Experimental: (§1) PDAC cells (5000 cells/well) were seeded in 96-well plates and, 24 h later, cells were treated with different concentrations of nanocapsulated SCH 772984, DEM, or their combinations. Control cells were treated with an equivalent level of DMSO. Drug concentrations were optimized for the cell-based assay of the individual drug. At 72 h after treatment, the cell viability assay was performed by adding 10 μL of the 3-(4,5-dimethylthiazol-2-yl)-2,5-diphenyltetrazolium bromide (MTT) reagent to each well, and the plates were incubated for 3 h at 37° C. The MTT reagent was removed, DMSO (100 μL/well) was added to solubilize the crystals, and absorbance was measured at 570 nm. Synergy analysis was performed using CompuSyn software.
(§2) The data was fitted in CompuSyn. These two cell lines were selected because MIA PaCa-2 cells are responsive to ERKi and GEM compared to Panc-1. […] However, consistent with previous studies, the Panc-1 cells were more resistant to these drugs compared to MIA PaCa-2 cells.

Panc-1 cells = assay: MTT cell viability and CompuSyn synergy assay; type: cell-based; settings: Panc-1, 72 h MTT
Experimental: as §1, §2

MIA PaCa-2 cells [2] = assay: Clonogenic survival assay; type: cell-based
Experimental: PDAC cells were seeded at a density of 400 cells/well in 6-well plates. The following day, cells were treated with nanoencapsulated ERKi at a concentration of 0.01 nM, carrier-encapsulated GEM at a concentration of 0.1 nM, and a combination of 0.01 nM encapsulated ERKi, and 0.1 nM encapsulated GEM for 12 days. After the incubation time, the medium was removed, and the cells were fixed with 3:1 methanol/glacial acetic acid for 15 min at room temperature. After the fixing reagent was removed, the cells were stained with 0.5% crystal violet solution (in methanol) for 15 min. The plates were washed thoroughly with tap water to remove residual crystal violet. The plates were dried overnight, and the colonies were counted using Colony Doc-It imaging station using Colony Doc-It imaging software.
To examine the link between ERK and GEM resistance in PDAC cells, a Clonogenic assay was performed for anchorage-dependent growth in MIA PaCa-2 and Panc-1 cell lines in the presence or absence of free or encapsulated ERKi (10 nM) or GEM (100 nM) alone or a combination of these two drugs for 12 days. The half-effective doses of encapsulated ERKi or encapsulated GEM was purposely selected from the preceding studies shown in FIG. 6 and FIG. 7 because these doses of free-drugs have minimal or no effect on PDAC cell viability (FIG. 6) and ERK phosphorylation (FIG. 7).

[3] = LC-MS drug concentration in tumor xenograft tissue; type: in vivo, nude mice; settings: nude, mouse, intraperitoneal, injected ip as drug-pH NPs, 75 mg/kg SCH772984, 40 mg/kg GEM, read-out: drug concentration in tumor tissues
Experimental: LC-MS analysis of drugs was performed on a Q-TOF Synapt G2S mass spectrometer (Waters, Milford, Mass.) coupled with an Acquity UPLC system (Waters). Drugs were resolved on an ACUITY UPLC HSS T3 column ([…], 100 Å pore diameter, 2.1 mm×150 mm, Waters) with an acetonitrile/water gradient containing 0.1% formic acid. GEM was detected as [M+H]+, and SCH 772984 was detected as [M+2H]2+ in a positive ESI mode.
Next, in vivo studies to obtain information on the systemic stability and tumor enrichment capacity of pH NPs were performed. The fate of drug-encapsulated nanoparticles in the MIA PaCa-2-pancreatic tumor xenograft model in immune-compromised nude mice was studied. Upon intraperitoneal (ip) administration of free or drug-pH NPs [75 mg/kg for SCH772984 and 40 mg/kg for GEM; human equivalent dose (HED)] for 48 h in tumor-bearing mice (N=3), the drug concentrations in tumor tissues was measured using LC-MS.

[4] = cited from earlier work
[5] = tested on: ERK phosphorylation (p44/p42 MAPK/ERK1/2); assay: Western blot of ERK activity in PDAC cells; type: cell-based
Experimental: Western blot analysis was the same as described in Mol. Cancer Ther. 2019, 18, 788-800. Briefly, cells were seeded at a cell density of 500,000 cells/well in 6-well plates. About 60% of confluent cells were treated with nanoparticles alone (NPA), free ERKi (FEI), or encapsulated ERKi (EEI) for 3 h at 0.001, 0.01, 0.1, 1, and 10 nM concentrations of the drug. Cells were lysed in a lysis buffer (50 mmol/L Tris pH7.4, 150 mmol/L sodium chloride, 1% NP-40, 0.25% sodium deoxycholate, 1 mmol/L EDTA) containing PMSF and Protease/Phosphatase Inhibitor Cocktail (Cell Signaling Technologies). Proteins were quantified with the Pierce BCA protein assay kits (Thermo Fisher Scientific). Under reducing conditions, a […] sample was loaded onto 10% SDS gels for the separation of proteins, and the resulting gel was transferred onto a […] nitrocellulose membrane. The blots were then immersed in a 5% blocking buffer made in Tris base and Tween-20 followed by incubation with antibodies against total-ERK and phospho-ERK primary antibodies (Cell Signaling Technologies; diluted in blocking buffer at 1:1000) overnight. The secondary antibody was incubated for 1 h at room temperature. The signal from the blots was detected using the Super Signal West Femto Maximum Sensitivity substrate (Thermo Fisher).
To determine the functional efficacy of ERKi-pH NPs, the question of whether encapsulated ERKi SCH 772984 can suppress the ERK activity by suppressing ERK phosphorylation (p44/p42 MAPK/ERK1/2) in PDAC cells was investigated. To do so, MIA PaCa-2 cells were exposed to nanoparticles free of SCH 772984 or encapsulated with SCH 772984 with different doses (0.1-100 nM) for 3 hours. Following treatment, total, phospho-ERK, RSK, and GAPDH were determined using Western blot analysis in the cell extracts.

[6] = cited from earlier work; remark: listed apart in the source

Nc1ccn([C@@H]2O[C@H](CO)[C@@H](O)C2(F)F)c(=O)n1 [GEM, gemcitabine]
IC50 of free drug compared with encapsulated drug (MIA PaCa-2 cells [1]): markedly higher
IC50 of free drug compared with encapsulated drug (Panc-1 cells): markedly higher
survival and colony-forming ability (MIA PaCa-2 cells [2]; MIA PaCa-2, 12 days, ERKi 10 nM, GEM 100 nM): decrease the colony-forming ability of these cells significantly
concentration at 48 h [3]: ~4 ng/g

CCCCNCCNCCCC [N,N′-dibutylethylenediamine]
pKa [4]: 4.0

O=C(Nc1ccc2[nH]nc(-c3ccncc3)c2c1)[C@@H]1CCN(CC(=O)N2CCN(c3ccc(-c4ncccn4)cc3)CC2)C1 [SCH 772984]
IC50 of free drug compared with encapsulated drug (MIA PaCa-2 cells [1]): markedly higher
IC50 of free drug compared with encapsulated drug (Panc-1 cells): markedly higher
change of pERK level, less than 10 nM encapsulated ERKi ([5]; 10 nM, MIA PaCa-2): 2.4 fold
total ERK and total RSK expression ([5]; MIA PaCa-2, 3 hours): did not affect
p-ERK and p-RSK levels ([5]; MIA PaCa-2, 3 hours, dose-dependent): markedly decreased
concentration at which inhibitory effect on p-ERK/p-RSK was first detected ([5]; MIA PaCa-2, 3 hours, doses 0.1-100 nM): 100 nM
effect of ERKi on GEM's effect on PDAC cells (MIA PaCa-2 cells [2]; ERKi at minimum inhibitory concentration (0.01 nM)): significantly enhances
concentration at 48 h [3]: ~2 ng/g
solubility [6]: low water solubility
solubility ([6]; listed as unencapsulated ERKi): extremely poor solubility
